Data from US20250268848A1, “COMPOSITIONS COMPRISING ENDOSIDIN 2 FOR REDUCING SARS-COV-2 INFECTION” (HENRY FORD HEALTH SYSTEM, priority 2021, published 2025).

What was measured:
[1] = system: ACE2 translocation to the cell surface of CD14+ monocytes; assay: Flow cytometry of ACE2 surface expression in PBMCs pre-treated with ES2 before R848 or LPS; type: cell-based, human; details: PBMCs pre-treated with ES2 1-2 h, then R848 or LPS 4 h
Protocol: Bars represent mean±SEM of biologically independent samples, (n=3/group for 40 μM ES2 condition; n=4/group for all other conditions).
For ex vivo stimulation assays analyzed by flow cytometry, fresh PBMCs were isolated from CPT tubes using a standard protocol. Briefly, whole blood cells were diluted with Ca^2+-free and Mg^2+-free PBS buffer (Corning, NY) containing 2% fetal bovine serum (FBS, R&D Systems, Minneapolis, MN) and 2 mM EDTA (VWR Life Science, Radnor, PA) and slowly overlaid onto Ficoll-Paque™ (GE healthcare, Chicago, IL) at 2:1 ratio by volume. The samples were centrifuged at RT for 20 min at 800×g with no braking. Next, the mononuclear cell layer at the plasma-Ficoll interface was moved into a new 50 ml tube and washed with PBS buffer and red blood cell lysis buffer at RT for 5 min. The isolated PBMCs were used on the day of isolation or placed at −80° C. for storage. Two million fresh or thawed PBMCs were transferred to each well of a round-bottom 96-well culture plate (Thermo Fisher Scientific) in 200 μL of RPMI medium containing 10% FBS. The thawed PBMCs were recovered for 2 h at 37° C. with 5% C02. […]
Flow cytometry methods. […] All data were analyzed using FlowJo 10.5.3 (BO Biosciences). […]

[2] = system: Hela cells; details: cited from earlier work
[3] = system: PBMCs; assay: Flow cytometry of ACE2 and TMPRSS2 cell surface expression in PBMCs stimulated ex vivo; type: cell-based, human; details: mean±SEM
Protocol: Mouse IgG1 antibodies were used as the isotype controls.
PBMCs were ex vivo cultured with R848, LPS or medium alone for 4 hrs, 24 hrs, and 48 hrs. Representative flow cytometric analysis of surface expression of ACE2 and TMPRSS2 in cDC.
PBMCs were ex vivo cultured with PMA plus ionomycin for 4 h. Representative flow cytometric analysis of surface expression of TMPRSS2 in CD4+, CD8+ and total T cells.
For ex vivo stimulation assays analyzed by flow cytometry, fresh PBMCs were isolated from CPT tubes using a standard protocol. Briefly, whole blood cells were diluted with Ca^2+-free and Mg^2+-free PBS buffer (Corning, NY) containing 2% fetal bovine serum (FBS, R&D Systems, Minneapolis, MN) and 2 mM EDTA (VWR Life Science, Radnor, PA) and slowly overlaid onto Ficoll-Paque™ (GE healthcare, Chicago, IL) at 2:1 ratio by volume. The samples were centrifuged at RT for 20 min at 800×g with no braking. Next, the mononuclear cell layer at the plasma-Ficoll interface was moved into a new 50 ml tube and washed with PBS buffer and red blood cell lysis buffer at RT for 5 min. The isolated PBMCs were used on the day of isolation or placed at −80° C. for storage. Two million fresh or thawed PBMCs were transferred to each well of a round-bottom 96-well culture plate (Thermo Fisher Scientific) in 200 μL of RPMI medium containing 10% FBS. The thawed PBMCs were recovered for 2 h at 37° C. with 5% C02. In some experiments, PBMCs were treated with different concentrations of ES2 (Sigma Aldrich) or 0.25% DMSO (the vehicle for ES2 at the highest concentration; ATCC, Manassas, VA) for 1-2 h during recovery stage. The fresh and recovered cells were then cultured with 1 μg/ml R848, LPS, or medium alone for 4 h. For TCR-independent T cell stimulation, PBMCs were cultured in RPMI medium containing 10% FBS in the presence of phorbol 12-myristate 13-acetate (PMA) (50 ng/ml) and ionomycin (1 μM) for a total of 4 h at 37° C. After incubation, the cells were washed with wash buffer in PBS containing 2% FBS and 1 mM EDTA prior to staining.
Flow cytometry methods. Single-cell suspensions were centrifuged at 450×g for 7 min, resuspended in ice-cold staining buffer (1×PBS with 2% FBS), and placed in a 96-well round-bottom plate (Thermo Fisher Scientific). After incubation with human Fe receptor blocking solution (Biolegend, San Diego, CA) at 4° C. for 15 min, cells were stained with a mixture of fluorescent surface antibodies at 4° C. for 30 min. For intracellular staining, the cells were fixed with IC Fixation Buffer (eBiosciences™, Thermo Fisher Scientific) at 4° C. for 30 min followed by incubation with fluorescent intracellular antibody cocktail in 1× Intracellular Fixation & Permeabilization Buffer (eBiosciences™, Thermo Fisher Scientific) at 4° C. for 30 min. The full list of fluorescent antibodies used is in Table 1 below. DAPI was added to the unfixed cells with surface staining at a final concentration of 1 μg/ml immediately before sample acquisition. The stained samples were then acquired on a FACSCelesta™ flow cytometer (BO Biosciences) using BO FACSDiva software version 8.0.2 (BO Biosciences). All data were analyzed using FlowJo 10.5.3 (BO Biosciences).
Methods. Flow cytometry and qRT-PCR were utilized as described in Example 1.

[4] = system: blood myeloid cells; assay: Mass cytometry (CyTOF) of surface ACE2 in whole blood myeloid cells stimulated ex vivo with R848; type: cell-based, human; details: 4 h ex vivo, COVID-19 patients and healthy controls, mean±SEM

| Compound | rapid translocation of ACE2 to the monocyte cell surface [1] | recycling of endocytosed transferrin to the plasma membrane [2] | ACE2+ TMPRSS2+ cDCs [3] | cell surface ACE2 localization in cDCs [3] | surface expression of TMPRSS2 in cDCs [3] | surface expression of ACE2 in CD14+ classic monocytes [4] [%] |
| --- | --- | --- | --- | --- | --- | --- |
| COc1cc(/C=N/NC(=O)c2cccc(F)c2)cc(I)c1O [ES2, 3-fluoro-benzoic acid, (2E)-2-[(4-hydroxy-3-iodo-5-methoxyphenyl)methylene]hydrazide] | blocked | inhibits |  |  |  |  |
| CCOCc1nc2c(N)nc3ccccc3c2n1CC(C)(C)O [R848, resiquimod] |  |  | 1.1%±0.21 | 8.9%±0.98 | 3.2%±0.87 | 11.0±2.7 |
| lipopolysaccharide [LPS] |  |  | 1.1%±0.21 | 8.9%±0.98 | 3.2%±0.87 |  |
